Assay results published in patent US6846937B2, “Method for the selective removal of acyl-functionality attached to the 2'-hydroxy-group of paclitaxel-related derivatives” (The University of Toledo, priority 2001, dated 2005).

Key:
[1] = Stability of PAC and DAP CAC analogs in methanol at ambient temperature (HPLC decay curve); format: physicochemical
Experimental: During development of an HPLC method to purify 2′,7-bis-monochloroacetyl-10-deacetylpaclitaxel (2′,7-bis-CAC-DAP), the inventors discovered that the compound was unstable in methanol solution at a concentration of 1 mg/ml. […] Thus, we decided to further investigate the apparent differences in the stability of several PAC and DAP CAC esters relative to concentration and acidity.
Compound abbreviations are provided in FIG. 2-Table 1 according to the nomenclature and numbering specified in FIG. 1. RT=Retention times on an analytical HPLC (Waters) equipped with a reversed-phase column (Supleco Discovery C18) using a gradient elution (60% acetonitrile from 0-2 min., linearly ramped from 60% to 75% from 2-12 min., and held steady at 75% for the duration of the assay) at a flow rate of 1.2 ml/min. monitored by UV detection (225 nm). NMR (CDCl3) values for the C2′ proton shifts are in ppm relative to TMS. T1/2=Apparent half-lives. All compounds were independently prepared and characterized by HPLC, NMR and elemental analyses. ^†Previously reported by Rao et al. ^††Previously reported by Rimoldi et al.^21 *Less than 5% breakdown after 72 hr.
A 1 mg/ml solution of 2′,7-bis-CAC-DAP in methanol was allowed to stand at ambient temperature. 20 μl samples were withdrawn at T=0, 2, 24 and 48 hrs. Longer incubations were deployed for compounds showing little breakdown. Aliquots were assayed directly by HPLC after establishing that responses obtained for serial dilutions of a freshly prepared 10 mg/ml stock solution of 2′,7-bis-CAC-DAP were linear throughout the concentration range anticipated for the samples. A decay curve was generated by following the decrease in compound peak area versus time. An apparent half-life (T1/2) was then calculated from a semi-log plot using Microsoft Excel. The decay curve for 2′,7-bis-CAC-DAP appears to follow pseudo first-order kinetics typical for solvolysis reactions. The T1/2 value for conversion to 7-CAC-DAP is 5.5 hrs. The product growth curve matches very closely with the compound decay curve. Similar results were obtained for all of the other 2′-chloroacetylated derivatives listed in FIG. 2-Table 1 except for 2′ CAC-DAP whose T1/2 appears to be about three-times longer (18 hrs.). Nevertheless, this derivative is still much more labile than the chloroacetyl esters placed at either the 7- or 10-positions (T1/2 values all >>72 hrs.).
For the more concentrated experiments, a 10 mg/ml solution of 2′,7-bis-CAC-DAP was allowed to stand at ambient temperature. […] For the weakly acidic studies, less than 4% breakdown of 2′,7-bis-CAC-DAP was observed over 48 hrs. and the calculated T1/2 was determined to be >1,000 hrs. […]

[2] = Alcoholysis of 2′-acyl group followed by analytical HPLC (Examples 1-4); format: physicochemical
Description: As part of research to better understand the interaction of PAC-related compounds with various components within cancer cells,^11,12 the inventors deployed CAC protection of both PAC and 10-deacetylpaclitaxel (DAP) (FIG. 4). During purification of various mixtures of the three predominate CAC derivatives obtained for DAP, namely the 2′-mono-, the 2′,7-bis- and the 2′,7,10-tri-CAC protected materials, the 2′-adducts appeared to be unstable when allowed to stand for prolonged periods in methanol. Testing purified materials on a 1 mg scale confirmed this observation. Moving to a larger sample, a 40 mL solution of 2′,7-bis-CAC-DAP was then examined at a concentration of 1 mg/mL. Methanolysis of the 2′-adduct was complete after 48 hours at ambient temperature. The exclusive product was isolated by evaporation of solvent, washed with cold water, and its structure characterized as 7-mono-CAC-DAP according to NMR (FIG. 5-Table 2) and elemental analysis. […] In this case the structural integrity for the latter was additionally confirmed by its independent synthesis analogous to a literature procedure^4 wherein after treatment of PAC with chloroacetic anhydride in pyridine, the reaction mixture was subjected to 10 mM ammonia at room temperature for 1 hour prior to preparative HPLC separation of the resulting mixture of esters.
7-Monochloroacetyl-10-deactylpaclitaxel (7-CAC-DAP) (2). 2′,7-bis-CAC-DAP (1) (30 mg, 0.031 mmol) was dissolved in 40 mL of methanol (HPLC grade) and left at ambient temperature. 20 μL samples were withdrawn at several hour intervals and analyzed directly by HPLC. The conversion was complete in 48 hrs. Solvent was evaporated to dryness leaving a glossy residue which crystallized upon addition of water. Yield: 25 mg (0.028 mmol) having 97% purity by HPLC; mp 163-166° C.; Analytical HPLC RT=24 min. (Discovery column); Elemental Analysis calculated for formula C47H50ClNO14: C, 63.55%; H, 5.67%; N, 1.58%. Found: C, 63.08%; H, 5.97%; N, 1.63%.
7-Monochloroacetylpaclitaxel (7-CAC-PAC) (4). 1 mg of 2′,7-bis-CAC-PAC (3) was dissolved in 1 mL of methanol and the solution left at ambient temperature. 20 μL samples were withdrawn at several hour intervals and directly analyzed by HPLC. The conversion was complete in 48 hours. […] (Discovery column); Elemental Analysis calculated for formula C49H52Cl NO15: C, 63.26%; H, 5.63%; N, 1.51%. […]
7-Methoxyacetylpaclitaxel (7-MAC-PAC) (5). […] Samples (20 μl) were withdrawn at several hour intervals and analyzed directly by HPLC. […] (Suplecosil column); Elemental analysis calculated for C50 H55 NO16.H2O: C, 63.36%; H, 6.09%; N, 1.48%. […]

## CC(=O)OC12COC1CC(OC(=O)CCl)C1(C)C(=O)C(O)C3=C(C)C(OC(=O)C(O)C(NC(=O)c4ccccc4)c4ccccc4)CC(O)(C(OC(=O)c4ccccc4)C21)C3(C)C (centres unmarked) [Compound 7-CAC-DAP, 7-Monochloroacetyl-10-deactylpaclitaxel]
[1]; methanol, studied for up to 120 hrs.
  Breakdown to DAP: no significant breakdown

## COCC(=O)O[C@H]1C[C@H]2OC[C@@]2(OC(C)=O)[C@H]2[C@H](OC(=O)c3ccccc3)[C@]3(O)C[C@H](OC(=O)[C@H](OC(=O)COC)[C@@H](NC(=O)c4ccccc4)c4ccccc4)C(C)=C([C@@H](OC(C)=O)C(=O)[C@]12C)C3(C)C [2′,7-bis-MAC-PAC]
[2]; 30 mg in 60 ml methanol, 47° C., within 7 hours
  Conversion (loss of 2′-acyl group): ~90%

## CC(=O)O[C@@]12CO[C@@H]1C[C@H](OC(=O)CCl)[C@@]1(C)C(=O)[C@H](O)C3=C(C)[C@@H](OC(=O)[C@H](OC(=O)CCl)[C@@H](NC(=O)c4ccccc4)c4ccccc4)C[C@@](O)([C@@H](OC(=O)c4ccccc4)[C@H]21)C3(C)C [2′,7-bis-CAC-DAP, 2′,7-bis-Monochloroacetyl-10-deacetylpaclitaxel]
[1]; 1 mg/ml in methanol with 0.2% acetic acid, over 48 hrs.
  Breakdown: less than 4%
[1]; 20 mg/ml, for preparative HPLC
  Solvolysis in more concentrated methanolic solution: did not appear to undergo solvolysis
[1]; concentration of 1 mg/ml
  Stability in methanol solution: unstable
[2]; 80% ethanol/20% water, 56° C., 24 hours
  Conversion (loss of 2′-acyl group): Approximately 50%
[2]; 80% ethanol/20% water, ambient temp., 22 hours
  Conversion (loss of 2′-acyl group): Approximately 20%
[2]; about 1 mg/mL in methanol, ambient temperature
  Time to complete methanolysis of the 2′-adduct: 48 h
